Test results: ChEMBL document CHEMBL1821551, “From fragment screening to in vivo efficacy: optimization of a series of 2-aminoquinolines as potent inhibitors of beta-site amyloid precursor protein cleaving enzyme 1 (BACE1)” (J Med Chem, 2011)

What follows are molecules tested on human MDR1 (P-gp) (assay: in vitro). Settings: pig, LLC-PK1.

Row | Papp [×10⁻⁶ cm/s] | Structure (SMILES)
1 | 6.5 | Cc1ccccc1-c1ccc2nc(N)c(C[C@@H](C)C(=O)NCc3ccccc3)cc2c1
2 | 16 | Cc1ccccc1-c1ccc2nc(N)c(CC(C)C(=O)NCc3cccnc3)cc2c1 (racemic)
3 | 12 | Cc1ccccc1-c1ccc2nc(N)c(CC(C)C(=O)NCc3cncs3)cc2c1 (racemic)
